This assay has as its target T1, mouse VISTA (mVISTA) (Mus musculus, UniProt Q9D659).
T1 construct: expressed in transfected cells; host or cells: Human embryonic kidney 293T cells
T1 sequence (Q9D659 33-308): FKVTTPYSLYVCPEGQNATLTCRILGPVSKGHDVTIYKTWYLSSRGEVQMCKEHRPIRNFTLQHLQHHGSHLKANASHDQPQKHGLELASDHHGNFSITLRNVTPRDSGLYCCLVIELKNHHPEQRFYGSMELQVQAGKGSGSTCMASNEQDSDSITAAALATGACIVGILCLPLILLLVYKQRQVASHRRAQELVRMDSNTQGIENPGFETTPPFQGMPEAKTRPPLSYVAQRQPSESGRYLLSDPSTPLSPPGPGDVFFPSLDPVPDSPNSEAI
Nature of the assay: Cell-Based Binding High-Content Assay For mVISTA (HC CBA mVISTA). Particulars: cell-based binding high-content assay, mVISTA. The essentials: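 This high-content binding assay uses HEK293T cells expressing murine VISTA, measuring displacement of 2 nM biotinylated peptide by fluorescent streptavidin imaging. IC50 values come from four-parameter logistic fitting.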

Read-outs that look alike come from different tables or passages of the source. Starred links: 1 amine or outer side, 2 acyl side, 3 side chain; linkers in the order of their positions; H or OH if unused. Positions of bridges follow the written chain, without caps; N, C: chain ends. Non-standard residues stand in square brackets, D forms with d. Residues, ends and D or L forms follow the SMILES beside them. Phe(3-Me) = Cc1cccc(C[C@H](N)C(=O)O)c1; 2Nal = N[C@@H](Cc1ccc2ccccc2c1)C(=O)O; βAsp = O=C(O)[C@H](CC(=O)[*:2])N[*:1]; Ahp(2) = CCCCC[C@H](N)C(=O)O; Tle = CC(C)(C)[C@H](N)C(=O)O; NMeS = CN[C@@H](CO)C(=O)O; NHexGly = CCCCCCNCC(=O)O; Aun = NCCCCCCCCCCC(=O)O; AEEA = NCCOCCOCC(=O)O

In the case of `CCCCCCN1CC(=O)N[C@@H](Cc2ccc(O)cc2)C(=O)N[C@@H](CC(C)C)C(=O)N[C@@H](CC(=O)O)C(=O)N[C@@H](CCCNC(=N)N)C(=O)N(C)[C@@H](CO)C(=O)N[C@@H](CCCCC)C(=O)N2CCC[C@H]2C(=O)N[C@@H](C(C)(C)C)C(=O)N[C@@H](CC(N)=O)C(=O)N[C@H](C(=O)N[C@@H](CC(=O)NCCOCCOCC(=O)N[C@@H](CC(=O)O)C(=O)NCCOCCOCC(=O)NCCCCCCCCCCC(=O)O)C(=O)O)CSCC(=O)N[C@@H](Cc2ccccc2)C(=O)N[C@@H](Cc2c[nH]c3ccccc23)C(=O)N[C@@H](CC(=O)O)C1=O` [compound 2066] ({CH2CO}-FWD[NHexGly]YLDR[NMeS][Ahp(2)]P[Tle]NC[βAsp][AEEA]D[AEEA][Aun]-OH; thioether N-14), where the note is “read-out: HC CBA miPr ISTA IC50”, the IC50 – broadly, the concentration needed to halve the response being measured – is 35.3 nM.

As to `CCCCCCN1CC(=O)N[C@@H](Cc2ccc(O)cc2)C(=O)N[C@@H](CC(C)C)C(=O)N[C@@H](CC(N)=O)C(=O)N[C@@H](CCCNC(=N)N)C(=O)N(C)[C@@H](CO)C(=O)N[C@@H](CCCCC)C(=O)N2CCC[C@H]2C(=O)N[C@@H](C(C)(C)C)C(=O)N[C@@H](CO)C(=O)N[C@H](C(=O)N[C@@H](CC(=O)NCCOCCOCC(=O)N[C@@H](CC(=O)O)C(=O)NCCOCCOCC(=O)NCCCCCCCCCCC(=O)O)C(=O)O)CSCC(=O)N[C@@H](Cc2ccccc2)C(=O)N[C@@H](Cc2ccc(O)cc2)C(=O)N[C@@H](CC(=O)O)C1=O` [compound 2068] ({CH2CO}-FYD[NHexGly]YLNR[NMeS][Ahp(2)]P[Tle]SC[βAsp][AEEA]D[AEEA][Aun]-OH; thioether N-14), the IC50 (read-out: HC CBA miPrISTA IC50) amounted to 29.9 nM.

In the case of `CCCCCCN1CC(=O)N[C@@H](Cc2ccc(O)cc2)C(=O)N[C@@H](CC(C)C)C(=O)N[C@@H](CC(N)=O)C(=O)N[C@@H](CCCNC(=N)N)C(=O)N(C)[C@@H](CO)C(=O)N[C@@H](CCCCC)C(=O)N2CCC[C@H]2C(=O)N[C@@H](C(C)(C)C)C(=O)N[C@@H](CC(=O)O)C(=O)N[C@H](C(=O)N[C@@H](CC(=O)NCCOCCOCC(=O)N[C@@H](CC(=O)O)C(=O)NCCOCCOCC(=O)NCCCCCCCCCCC(=O)O)C(=O)O)CSCC(=O)N[C@@H](Cc2ccccc2)C(=O)N[C@@H](Cc2cccc(C)c2)C(=O)N[C@@H](CC(=O)O)C1=O` [compound 2069] ({CH2CO}-F[Phe(3-Me)]D[NHexGly]YLNR[NMeS][Ahp(2)]P[Tle]DC[βAsp][AEEA]D[AEEA][Aun]-OH; thioether N-14), for the setting “read-out: HC CBA miPrISTA IC50”, the IC50 came to 45 nM.

Consider `CCCCCCN1CC(=O)N[C@@H](Cc2ccc(O)cc2)C(=O)N[C@@H](CC(C)C)C(=O)N[C@@H](CC(N)=O)C(=O)N[C@@H](CCCNC(=N)N)C(=O)N(C)[C@@H](CO)C(=O)N[C@@H](CCCCC)C(=O)N2CCC[C@H]2C(=O)N[C@@H](C(C)(C)C)C(=O)N[C@@H](CC(=O)O)C(=O)N[C@H](C(=O)N[C@@H](CC(=O)NCCOCCOCC(=O)N[C@@H](CC(=O)O)C(=O)NCCOCCOCC(=O)NCCCCCCCCCCC(=O)O)C(=O)O)CSCC(=O)N[C@@H](Cc2ccc3ccccc3c2)C(=O)N[C@@H](Cc2ccc(O)cc2)C(=O)N[C@@H](CC(=O)O)C1=O` [compound 2070] ({CH2CO}-[2Nal]YD[NHexGly]YLNR[NMeS][Ahp(2)]P[Tle]DC[βAsp][AEEA]D[AEEA][Aun]-OH; thioether N-14), for which the IC50 (read-out: HC CBA miPrISTA IC50) was 41.6 nM.

Consider `CCCCCCN1CC(=O)N[C@@H](Cc2ccc(O)cc2)C(=O)N[C@@H](CC(C)C)C(=O)N[C@@H](CC(N)=O)C(=O)N[C@@H](CCCNC(=N)N)C(=O)N(C)[C@@H](CO)C(=O)N[C@@H](CCCCC)C(=O)N2CCC[C@H]2C(=O)N[C@@H](C(C)(C)C)C(=O)N[C@@H](CC(=O)O)C(=O)N[C@H](C(=O)N[C@@H](CC(=O)NCCOCCOCC(=O)N[C@@H](CC(=O)O)C(=O)NCCOCCOCC(=O)NCCCCCCCCCCC(=O)O)C(=O)O)CSCC(=O)N[C@@H](Cc2cccc(C)c2)C(=O)N[C@@H](Cc2ccc(O)cc2)C(=O)N[C@@H](CC(=O)O)C1=O` [compound 2071] ({CH2CO}-[Phe(3-Me)]YD[NHexGly]YLNR[NMeS][Ahp(2)]P[Tle]DC[βAsp][AEEA]D[AEEA][Aun]-OH; thioether N-14), for which the IC50 (read-out: HC CBA miPrISTA IC50) is 27.8 nM.

The record behind these values is patent publication US20240218022A1, “ANTI-VISTA MACROCYCLIC PEPTIDES AND COMPOSITIONS” (BRISTOL-MYERS SQUIBB COMPANY, priority 2022, published 2024).
